The subject of one data set is type II (β) receptors. As to conditions: activity of estradiol set at 100; cited from earlier work.
In a further data set the test system is Enterococcus faecium. Put plainly: metabolism of soybean extract isoflavones in microbial culture, HPLC assay. Format: in vitro ADME. As for the experimental part:
(§1) At each of these times, a sample is removed from the microbial cultures, diluted with an equal volume of methanol and then filtered. In each case, the methanolic solution is analyzed by high performance liquid chromatography. […] In this way, the contents of the aglycone and glycosylated forms in the metabolized extract are calculated with respect to the glycosylated forms (100%) in the initial extract.

Data set [1] concerns Lactobacillus acidophilus. The data set is described as above. It counts as in vitro ADME. As for the experimental part:
as §1

For another data set, the system named is Lactobacillus brevis. The description is as above. Format: in vitro ADME. As for the experimental part:
as §1

For another data set, the system named is Lactobacillus casei. Described as above. It counts as in vitro ADME. As for the experimental part:
as §1

In another data set the test system is Lactobacillus plantarum. The data set is described as above. It counts as in vitro ADME. As for the experimental part:
as §1

A further data set relates to Lactobacillus rhamnosus. Described as above. Format: in vitro ADME. As for the experimental part: as §1
The test system of the next data set is Pediococcus acidilactici. Described as above. It counts as in vitro ADME. As for the experimental part: as §1
Data set [2] concerns Propionibacterium acidipropionici. The data set is described as above. It counts as in vitro ADME. As for the experimental part:
as §1

The subject of data set [3] is Streptococcus thermophilus. The description is as above. Format: in vitro ADME. As for the experimental part: as §1
The next data set relates to osteoclastic activity. Particulars: cited from earlier work.
The test system of the next data set is bone. Particulars: cited from earlier work.
The nature of data set [4]: selecting isoflavone-metabolizing microorganisms. As to conditions: microbial culture with soybean extract. As for the experimental part:
At each of these times, a sample is removed from the microbial cultures, diluted with an equal volume of methanol and then filtered. In each case, the methanolic solution is analyzed by high performance liquid chromatography. High performance liquid chromatography is used to assay daidzine, genistine, daidzein and genistein in the initial extract and in the media metabolized by the different microorganisms. In this way, the contents of the aglycone and glycosylated forms in the metabolized extract are calculated with respect to the glycosylated forms (100%) in the initial extract.

Where two headings read alike, the source gives them in different places.

Consider `O=c1c(-c2ccc(O)cc2)coc2cc(O)ccc12` [Daidzein, daidzein], for which the estrogenic activity in the data set on type II (β) receptors is reported as 0.013.
`O=c1c(-c2ccc(O)cc2)coc2cc(O[C@@H]3O[C@H](CO)[C@@H](O)[C@H](O)[C@H]3O)ccc12` [Daidzine, daidzine]: the “content in the metabolized extract with respect to the glycosylated forms (100%) in the initial extract” value (shortened to “content … (100%) in the initial extract”) with Enterococcus faecium (72 h) is 0.1%; in data set [1], 16%; with Lactobacillus brevis, 16%; in the data set on Lactobacillus casei it was 80%; with Lactobacillus plantarum, 75%; in the data set on Lactobacillus rhamnosus, 26%. Besides, the results for the “content … (100%) in the initial extract” value (in the data set with Pediococcus acidilactici; in data set [2]; in data set [3]) were 77%, 33% and 65%, respectively.
Turning to `O=c1c(-c2ccc(O)cc2)coc2cc(O)cc(O)c12` [Genistein, genistein], the “content … (100%) in the initial extract” value in the data set on Enterococcus faecium (Enterococcus faecium culture, cultured 24, 48 and 72 hours, time not given) is on record as 80%; in [1] (Lactobacillus acidophilus culture, time not given) it was 83%; in the data set on Lactobacillus brevis (Lactobacillus brevis culture, time not given) it was 81%; in the data set on Lactobacillus casei (Lactobacillus casei culture, time not given), 13%; in the data set with Lactobacillus plantarum (Lactobacillus plantarum culture, time not given), 44%; in the data set on Lactobacillus rhamnosus (Lactobacillus rhamnosus culture, time not given), 85%. The “content … (100%) in the initial extract” value with Pediococcus acidilactici (Pediococcus acidilactici culture, time not given) is on record as 30%; in [2] (Propionibacterium acidipropionici culture, time not given) it was 72%; in data set [3] (Streptococcus thermophilus culture, time not given) it was 25%. Moreover, the estrogenic activity in the data set on type II (β) receptors is reported as 0.084. Further, the osteoclastic activity entry in the data set with osteoclastic activity is reported as “inhibits osteoclastic activity”.
Turning to `O=c1c(-c2ccc(O)cc2)coc2cc(O[C@@H]3O[C@H](CO)[C@@H](O)[C@H](O)[C@H]3O)cc(O)c12` [Genistine, genistine], the “content … (100%) in the initial extract” value is reported as 5.5% in the data set on Enterococcus faecium (Enterococcus faecium, 72 h); 6.5% in data set [1] (Lactobacillus acidophilus); 2% in the data set on Lactobacillus brevis (Lactobacillus brevis); 85% with Lactobacillus casei (Lactobacillus casei); 53% with Lactobacillus plantarum (Lactobacillus plantarum); 5% with Lactobacillus rhamnosus (Lactobacillus rhamnosus). Further, the results for the “content … (100%) in the initial extract” value (in the data set on Pediococcus acidilactici (Pediococcus acidilactici); in data set [2] (Propionibacterium acidipropionici); in data set [3] (Streptococcus thermophilus)) were 63%, 12% and 73%, respectively.
With `Oc1ccc([C@H]2COc3cc(O)ccc3C2)cc1` [equol, reference compound], in the data set with type II (β) receptors, the estrogenic activity was 0.61.
As for `CC(C)Oc1ccc2c(=O)c(-c3ccccc3)coc2c1` [ipriflavone], the bone gain result in the data set on bone (500 to 600 mg per day, 40 menopausal women suffering from osteoporosis) was “bone gain at the level of L1-L5, with a return to normal in 12 months”. For the same compound, the bone losses entry in the data set on bone (women being treated with LHRH agonists) is given as “possible to avoid bone losses”.
Take Lactobacillus acidophilus: the “ranking of strains by isoflavone-metabolizing activity” value in [4] is given as “the most active strains”.
With estradiol [reference compound], in the data set with type II (β) receptors, the estrogenic activity is 100.

Source of the values: patent US20020114786A1, “Pharmaceutical preparations comprising soybean isoflavone extracts and probiotic microogranisms” (priority 2000, published 2002).
